Values after ≈ are worked out from the molar mass of the structure shown. Results filed as inconclusive are left out. Active and inactive are the calls of the source. No rule for the calls is given here.
test system: M. tuberculosis H37Rv growth inhibition; assay: Confirmatory growth inhibition assay against Mycobacterium tuberculosis H37Rv, potency (AID 1949);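 also: bacteria grown 7 days with compound before Alamar blue readout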

Going from `CCOc1ccc(Nc2nc(-c3ccccn3)cs2)cc1` to `Cc1ccc(-c2csc(Nc3ccc(S(N)(=O)=O)cc3)n2)cc1`, the IC50 rises from under 0.1 µg/mL to 2.52 µg/mL (≈ 7.29 µM).

Going from `N#Cc1cc2c(ccc3ccccc32)oc1=O` to `O=c1c2ccccc2nc(/C=C/c2ccc([N+](=O)[O-])o2)n1CCCO`, the IC50 falls from 2.12 µg/mL (≈ 9.58 µM) to under 0.1 µg/mL.

First: Cc1oc2ccc(OC(=O)c3ccc(F)cc3)cc2c1C(=O)OC(C)C
Second: CCCCOC(=O)COc1ccc2c(=O)c(Oc3ccc(OCC)cc3)c(C)oc2c1
The IC50 of the first is 1.5-fold higher: 2.4 µg/mL (≈ 6.73 µM) for the first, 1.59 µg/mL (≈ 3.73 µM) for the second.

Compared with `c1ccc(COc2ccc(OCCCCn3ccnc3)cc2)cc1`, `Cc1cc(OCCCCn2ccnc2)ccc1C(C)C` is 2.1-fold lower in IC50: 5.37 µg/mL (≈ 16.7 µM) for the first, 2.57 µg/mL (≈ 9.43 µM) for the second.

First: O=C(Nc1cccc(Cl)c1)Nc1ccc(N2CCOCC2)c(C(F)(F)F)c1
Second: O=C(Nc1ccc(N2CCCC2)c(Cl)c1)c1ccccc1F
The IC50 of the first is 1.6-fold lower: 3.59 µg/mL (≈ 8.98 µM) for the first, 5.78 µg/mL (≈ 18.1 µM) for the second.

`CCCc1cc(C(N)=O)c(NC(=O)c2ccoc2C)s1` and `COC(=O)c1c(NC(=O)c2cc3ccccc3oc2=O)sc2c1CCC2` are within 1.5-fold of each other in IC50: 4.4 µg/mL (≈ 15 µM) for the first, 4.29 µg/mL (≈ 11.6 µM) for the second.

First: O=C(CCN1C(=O)C2C3C=CC(C4CC34)C2C1=O)Oc1cccc2cccnc12 (stereo not given)
Second: O=C(Oc1cccc2cccnc12)c1ccccc1F
The IC50 of the first is 1.8-fold lower: 1.46 µg/mL (≈ 3.76 µM) for the first, 2.7 µg/mL (≈ 10.1 µM) for the second.

`COc1ccc(C(=O)/C=C/Nc2cc(Cl)ccc2O)cc1OC` and `CCOc1cc(CNCCO)ccc1OCc1ccc(Cl)cc1Cl` are within 1.5-fold of each other in IC50: 4.6 µg/mL (≈ 13.8 µM) for the first, 6.03 µg/mL (≈ 16.3 µM) for the second.

First: CCc1cccc(OCC(=O)Nc2ccc([N+](=O)[O-])cc2)c1
Second: COC(=O)COc1ccc(NC(=O)COc2cccc(C)c2)cc1
The IC50 of the first is 15-fold higher: 11.7 µg/mL (≈ 39.1 µM) for the first, 0.77 µg/mL (≈ 2.34 µM) for the second.

`COc1ccccc1-c1c(C)oc2cc(OCC(=O)OCc3ccccc3)ccc2c1=O` and `COC(=O)COc1ccc(CSCC(=O)Nc2ccc3ccccc3c2)cc1` are within 1.5-fold of each other in IC50: 0.36 µg/mL (≈ 0.836 µM) for the first, 0.44 µg/mL (≈ 1.11 µM) for the second.

Compared with `Cc1ccccc1NC(=O)c1ccccc1NC(=S)NC(=O)c1cccnc1`, `CC(C)(C)C(=O)NC(=S)NNC(=O)C(c1ccccc1)c1ccccc1` is 2.3-fold higher in IC50: 1.3 µg/mL (≈ 3.33 µM) for the first, 3.01 µg/mL (≈ 8.15 µM) for the second.

Compared with `CCCCOc1ccc(C(=O)NC23CC4CC(CC(C4)C2)C3)cc1`, `O=C(Nc1ccc(F)c(Cl)c1)C12CC3CCC(CC(C3)C1)C2` is lower in IC50: 4.33 µg/mL (≈ 13.2 µM) for the first, under 0.1 µg/mL for the second.

`CCN(CC)C(=S)NC(=O)c1ccc(F)cc1` and `CC(C)(C)c1ccc(C(=O)NC(=S)Nc2ccc(F)cc2)cc1Br` are within 1.5-fold of each other in IC50: 3.03 µg/mL (≈ 11.9 µM) for the first, 2.51 µg/mL (≈ 6.13 µM) for the second.

`CC(=O)Oc1ccccc1C(=O)Nc1ccc(Br)cc1Cl` and `O=C(Nc1ccc(Cl)c(Br)c1)c1ccc(Cl)cc1Cl` are the same in IC50: 4.23 µg/mL (≈ 11.5 µM) for the first, 4.23 µg/mL (≈ 11.1 µM) for the second.

Compared with `O=C(Nc1ccc(C(F)(F)F)cc1)C1COc2ccccc2O1` (stereo not given), `Cc1ccc(S(=O)(=O)Nc2ccc(NC(=O)Nc3cccc(C(F)(F)F)c3)cc2)cc1` is 34-fold lower in IC50: 37.9 µg/mL (≈ 117 µM) for the first, 1.13 µg/mL (≈ 2.51 µM) for the second.

First: COC(=O)COc1ccc(NC(=O)c2cccc(C)c2)cc1
Second: COCc1nc2ccccc2n1CCCOc1ccc(C)cc1
The IC50 of the first is 14-fold lower: 0.58 µg/mL (≈ 1.94 µM) for the first, 8.25 µg/mL (≈ 26.6 µM) for the second.

`COc1ccc(-c2csc3ncn(C(C)C(=O)OC4CCCCC4)c(=O)c23)cc1` (stereo not given) and `O=C(Oc1ccc(C2CCCCC2)cc1)c1cccs1` are within 1.5-fold of each other in IC50: 10.9 µg/mL (≈ 26.5 µM) for the first, 13.3 µg/mL (≈ 46.4 µM) for the second.

Going from `CCCCN1CCC(O)(c2ccccc2)C(C(=O)c2ccccc2)C1` (stereo not given) to `Cn1c(NC(=O)c2ccccc2)nc2ccccc21`, the IC50 falls from 11.4 µg/mL (≈ 33.9 µM) to 0.57 µg/mL (≈ 2.27 µM) (20-fold).

First: Clc1ccc(OCCCCCn2ccnc2)c(Cl)c1
Second: Clc1cc(Br)ccc1OCCCCn1ccnc1
The IC50 of the first is 3.1-fold higher: 3.48 µg/mL (≈ 11.6 µM) for the first, 1.11 µg/mL (≈ 3.37 µM) for the second.

First: COc1cccc(OCCN2CCN(c3ncnc4sc5c(c34)CCCC5)CC2)c1
Second: CCOC(=O)c1c(NC(=S)N2CCN(C(=O)C3CCCO3)CC2)sc(C)c1-c1ccccc1 (stereo not given)
The IC50 of the first is 4.3-fold higher: 29 µg/mL (≈ 68.2 µM) for the first, 6.67 µg/mL (≈ 13.7 µM) for the second.

Going from `N#Cc1c(NC(=S)NC(=O)C2CCCC2)sc2c1CCCC2` to `O=C(c1ccccc1)c1ccc2nc(-c3cccc(NC(=O)C4CC4)c3)[nH]c2c1`, the IC50 falls from 28.4 µg/mL (≈ 85.2 µM) to 7.78 µg/mL (≈ 20.4 µM) (3.7-fold).

`Cc1cc2ncn(CCCCOc3ccccc3)c2cc1C` and `CCOC(=O)C(C)Oc1noc2nc(-c3ccccc3)ccc12` (stereo not given) are within 1.5-fold of each other in IC50: 4.6 µg/mL (≈ 15.6 µM) for the first, 3.92 µg/mL (≈ 12.6 µM) for the second.

Compared with `Cc1ccc2nsnc2c1S(=O)(=O)Nc1cccc2cccnc12`, `O=S(=O)(Nc1cc(Sc2ccccc2)c(O)c2ccccc12)c1cccs1` is 83-fold higher in IC50: 0.31 µg/mL (≈ 0.87 µM) for the first, 25.7 µg/mL (≈ 62.2 µM) for the second.

First: CCc1ccc(C2=CC(=O)c3ccccc3C2=O)cc1
Second: O=C(c1cccc([N+](=O)[O-])c1)N1N=C(c2ccc(Br)cc2)CC1(O)C(F)(F)F (stereo not given)
The IC50 of the first is 2.8-fold higher: 5.94 µg/mL (≈ 22.6 µM) for the first, 2.13 µg/mL (≈ 4.65 µM) for the second.

`COc1cccc(NC(=S)NC(=O)CC(C)(C)C)c1` and `CCOC(=O)c1ccc(NC(=O)CSc2nnc(-c3ccco3)c(-c3ccco3)n2)cc1` are within 1.5-fold of each other in IC50: 13.4 µg/mL (≈ 47.9 µM) for the first, 19.7 µg/mL (≈ 43.6 µM) for the second.

Compared with `N#Cc1c(SCC(=O)OCc2ccccc2)nsc1SCC(=O)OCc1ccccc1`, `C1=CC2CC1CC2CN1CCC(N(CCc2ccccc2)Cc2ccccc2)CC1` (stereo not given) is 6.2-fold lower in IC50: 8.73 µg/mL (≈ 18.6 µM) for the first, 1.4 µg/mL (≈ 3.49 µM) for the second.

Compared with `Cc1cc(C)nc(Nc2ccc(N3CCCC3)cc2)n1`, `CCOC(=O)N1CCN(CCC(=O)c2ccc(Cl)cc2)CC1` is 4-fold lower in IC50: 9.69 µg/mL (≈ 36.1 µM) for the first, 2.45 µg/mL (≈ 7.54 µM) for the second.

In the case of `CN1C(=O)N(C)c2ccc(C=O)c3cccc1c23`, the IC50 is reported as > 50 µg/mL (inactive).
With `COC(=O)c1ccc(CSc2nnc(-c3ccccc3)o2)o1` the IC50 was > 50 µg/mL (inactive).
For `COC(=O)c1ccc(OCC(=O)c2ccc(F)cc2)cc1`, the IC50 was > 50 µg/mL (inactive).
`O=C(Cc1ccc(Cl)cc1)Oc1cccc2cccnc12` was tested, and the IC50 was > 50 µg/mL (inactive).
In the case of `Cc1ccc(CNC(=O)c2ccc(C)cc2Cl)cc1`, the IC50 is reported as > 50 µg/mL (inactive).
In the case of `CC1=CC(C)(C)N2C(=O)C(=O)c3cc(OC(=O)c4ccccc4)cc1c32`, the IC50 is reported as > 50 µg/mL (inactive).
